Like-named read-outs stand apart in the source and are kept apart here.
System: HIV-1 Ba-L or HIV-1 IIIB infection of the HOS cell line (expressing hCXCR4/hCCR5/hCD4/pHIV-LTR-luciferase)
Assay: HOS HIV-1 Infectivity Assay
Type: cell-based
Details: luciferase readout, strain not given, read-out: Activity Level
Experimental: Compounds were profiled against two HIV-1 viruses, the M-tropic (CCR5 utilizing) Ba-L strain and the T-tropic (CXCR4 utilizing) IIIB strain. Ba-L was propagated in either peripheral blood lymphocytes or SupT1/CCR5+/CXCR4+ cells. IIIB was propagated in peripheral blood lymphocytes. Compounds were tested for their ability to block infection of the HOS cell line (expressing hCXCR4/hCCR5/hCD4/pHIV-LTR-luciferase) by either HIV-1 Ba-L or HIV-1 IIIB. Compound cytotoxicity was also examined in the absence of virus addition.
HOS cells (expressing hCXCR4/hCCR5/hCD4/pHIV-LTR-luciferase) were harvested and diluted in Dulbeccos modified Eagles media supplemented with 2% FCS to a concentration of 120,000 cells/ml. The cells were plated into 96-well plates (50 μl per well) and the plates were placed in a tissue culture incubator (370° C.; 5% CO2/95% air) for a period of 24 h.
Subsequently, 50 μl of the desired drug solution (2 times the final concentration) was added to each well and the plates were returned to the tissue culture incubator ([…]; 5% CO2/95% air) for 1 h. Following this incubation, 60 μl of diluted virus (4 times the final concentration) was added to 60 μl of 2× the final desired concentration of the compound and 100 μl this compound/virus mix was added to each well (approximately 2 million RLU per well of virus). The plates were returned to the tissue culture incubator ([…]; 5% CO2/95% air) and were incubated for a further 96 h.
Following this incubation the endpoint for the virally infected cultures was quantified following addition of Steady-Glo Luciferase assay system reagent (Promega, Madison, Wis.). Cell viability or non-infected cultures was measured using a CellTiter-Glo luminescent cell viability assay system (Promega, Madison, Wis.). All luminescent readouts are performed on a Topcount luminescence detector (Packard, Meridien, Conn.).

[1] = Human immunodeficiency virus 1, HOS cells

| Molecule | IC50 [1] | IC50 (HOS cells) |
| --- | --- | --- |
| CN(C)C1CCN(c2ccc(-c3c(CN(C)[C@H]4CCCc5cccnc54)nc4ccccn34)cn2)C1 (stereo partly drawn) [Example 18, (8S)-N-[(3-{6-[3-(Dimethylamino)-1-pyrrolidinyl]-3-pyridinyl}imidazo[1,2-a]pyridin-2-yl)methyl]-N-methyl-5,6,7,8-tetrahydro-8-quinolinamine] | 0.5 to 10 µM | – |
| CN(Cc1nc2ccccn2c1CNCCCN)C1CCCc2cccnc21 (stereo not shown) [Example 32, N-[(2-{-[methyl(5,6,7,8-tetrahydro-8-quinolinyl)amino]methyl}imidazo[1,2-a]pyridin-3-yl)methyl]-1,3-propanediamine] | 0.1 to 0.5 µM | – |
| N,N,N′-Trimethyl-N′-{[2-({methyl[(8S)-5,6,7,8-tetrahydro-8-quinolinyl]amino}methyl)imidazo[1,2-a]pyridin-3-yl]methyl}-1,2-ethanediamine [Example 17] | – | < 0.1 µM |
| CN(C)C1CCN(C(=O)c2c(CN(C)C3CCCc4cccnc43)nc3ccccn23)C1 (stereo not shown) [Example 36, N-[(3-{[3-(dimethylamino)-1-pyrrolidinyl]carbonyl}imidazo[1,2-a]pyridin-2-yl)methyl]-N-methyl-5,6,7,8-tetrahydro-8-quinolinamine] | 0.1 to 0.5 µM | – |
| CN(C)CC(=O)NCc1c(CN(C)[C@H]2CCCc3cccnc32)nc2ccccn12 [Example 7, N^2,N^2-Dimethyl-N^1-{[2-({methyl[(8S)-5,6,7,8-tetrahydro-8-quinolinyl]amino}methyl)imidazo[1,2-a]pyridin-3-yl]methyl}glycinamide] | < 0.1 µM | – |
| CN(Cc1nc2ccccn2c1-c1cccnc1)[C@H]1CCCc2cccnc21 [Example 5, (8S)-N-Methyl-N-{[3-(3-pyridinyl)imidazo[1,2-a]pyridin-2-yl]methyl}-5,6,7,8-tetrahydro-8-quinolinamine] | 0.1 to 0.5 µM | – |
| CN(C)CCN(C)c1ccc(-c2c(CN(C)[C@H]3CCCc4cccnc43)nc3ccccn23)cn1 [Example 16, N,N,N′-trimethyl-N′-trimethyl-N′-{5-[2-({methyl[(8S)-5,6,7,8-tetrahydro-8-quinolinyl]amino}methyl)imidazo[1,2-a]pyridin-3-yl]-2-pyridinyl}-1,2-ethanediamine] | 0.5 to 10 µM | – |
| CN(C)C1CCN(Cc2c(CN(C)[C@H]3CCCc4cccnc43)nc3ccccn23)C1 (stereo partly drawn) [Example 13, (8S)-N-[(3-{[3-Dimethylamino-1-pyrrolidinyl]methyl}imidazo[1,2-a]pyridin-2-yl)methyl]-N-methyl-5,6,7,8-tetrahydro-8-quinolinamine] | < 0.1 µM | – |
| CN(Cc1nc2ccccn2c1C(=O)N1CC(N)C1)C1CCCc2cccnc21 (stereo not shown) [Example 34, N-({3-[(3-amino-1-azetidinyl)carbonyl]imidazo[1,2-a]pyridin-2-yl}methyl)-N-methyl-5,6,7,8-tetrahydro-8-quinolinamine] | 0.5 to 10 µM | – |
| CN1CCC(N(C)Cc2c(CN(C)[C@H]3CCCc4cccnc43)nc3ccccn23)CC1 [Example 24, (8S)-N-Methyl-N-[(3-{[methyl(1-methyl-4-piperidinyl)amino]methyl}imidazo[1,2-a]pyridin-2-yl)methyl]-5,6,7,8-tetrahydro-8-quinolinamine] | < 0.1 µM | – |
| CN(Cc1nc2ccccn2c1-c1ccc(N2CCCC2)nc1)[C@H]1CCCc2cccnc21 [Example 15, (8S)-N-Methyl-N-({3-[6-(1-pyrrolidinyl)-3-pyridinyl]imidazo[1,2-a]pyridin-2-yl}methyl)-5,6,7,8-tetrahydro-8-quinolinamine] | 0.1 to 0.5 µM | – |
| CN(C)Cc1c(CN(C)[C@H]2CCCc3cccnc32)nc2ccccn12 [Example 6, (8S)-N-({3-[(Dimethylamino)methyl]imidazo[1,2-a]pyridin-2-yl}methyl)-N-methyl-5,6,7,8-tetrahydro-8-quinolinamine] | < 0.1 µM | – |
| CN(C)c1ccc(-c2c(CN(C)[C@H]3CCCc4cccnc43)nc3ccccn23)cn1 [Example 11, (8S)-N-({3-[6-(Dimethylamino)-3-pyridinyl]imidazo[1,2-a]pyridin-2-yl}methyl)-N-methyl-5,6,7,8-tetrahydro-8-quinolinamine] | < 0.1 µM | – |
| CN(Cc1nc2ccccn2c1CN1CCOCC1)[C@H]1CCCc2cccnc21 [Example 10, (8S)-N-Methyl-N-{[3-(4-morpholinylmethyl)imidazo[1,2-a]pyridin-2-yl]methyl}-5,6,7,8-tetrahydro-8-quinolinamine] | 0.1 to 0.5 µM | – |
| COCCN(C)Cc1c(CN(C)[C@H]2CCCc3cccnc32)nc2ccccn12 [Example 21, (8S)-N-Methyl-N-{[3-({methyl[2-(methyloxy)ethyl]amino}methyl)imidazo[1,2-a]pyridin-2-yl]methyl}-5,6,7,8-tetrahydro-8-quinolinamine] | 0.1 to 0.5 µM | – |
| CN(Cc1nc2ccccn2c1CN1CCCC1)[C@H]1CCCc2cccnc21 [Example 9, (8S)-N-Methyl-N-{[3-(1-pyrrolidinylmethyl)imidazo[1,2-a]pyridin-2-yl]methyl}-5,6,7,8-tetrahydro-8-quinolinamine] | < 0.1 µM | – |
| CN(Cc1nc2ccccn2c1-c1ccncc1)[C@H]1CCCc2cccnc21 [Example 1, (8S)-N-Methyl-N-{[3-(4-pyridinyl)imidazo[1,2-a]pyridin-2-yl]methyl}-5,6,7,8-tetrahydro-8-quinolinamine] | < 0.1 µM | – |
| CN1CCC(N(C)Cc2c(CN(C)[C@H]3CCCc4cccnc43)nc3ccccn23)C1 (stereo partly drawn) [Example 23, (8S)-N-Methyl-N-[(3-{[methyl(1-methyl-3-pyrrolidinyl)amino]methyl}imidazo[1,2-a]pyridin-2-yl)methyl]-5,6,7,8-tetrahydro-8-quinolinamine] | < 0.1 µM | – |
| CN(CCC#N)Cc1c(CN(C)[C@H]2CCCc3cccnc32)nc2ccccn12 [Example 27, 3-(Methyl{[2-({methyl[(8S)-5,6,7,8-tetrahydro-8-quinolinyl]amino}methyl)imidazo[1,2-a]pyridin-3-yl]methyl}amino)propanenitrile] | < 0.1 µM | – |
| CN(Cc1nc2ccccn2c1-c1ccc(N2CCOCC2)nc1)[C@H]1CCCc2cccnc21 [Example 8, (8S)-N-Methyl-N-({3-[6-(4-morpholinyl)-3-pyridinyl]imidazo[1,2-a]pyridin-2-yl}methyl)-5,6,7,8-tetrahydro-8-quinolinamine] | 0.1 to 0.5 µM | – |
| CN(CC#N)Cc1c(CN(C)[C@H]2CCCc3cccnc32)nc2ccccn12 [Example 25, (Methyl{[2-({methyl[(8S)-5,6,7,8-tetrahydro-8-quinolinyl]amino}methyl)imidazo[1,2-a]pyridin-3-yl]methyl}amino)acetonitrile] | < 0.1 µM | – |
| CC(C)CNCCCc1c(CN(C)[C@H]2CCCc3cccnc32)nc2ccccn12 [Example 4, (8S)-N-Methyl-N-[(3-{3-[(2-methylpropyl)amino]propyl}imidazo[1,2-a]pyridin-2-yl)methyl]-5,6,7,8-tetrahydro-8-quinolinamine] | < 0.1 µM | – |
| CN(C)CCCc1c(CN(C)[C@H]2CCCc3cccnc32)nc2ccccn12 [Example 3, (8S)-N-({3-[3-(Dimethylamino)propyl]imidazo[1,2-a]pyridin-2-yl}methyl)-N-methyl-5,6,7,8-tetrahydro-8-quinolinamine] | < 0.1 µM | – |
| CN1CCN(c2ccc(-c3c(CN(C)[C@H]4CCCc5cccnc54)nc4ccccn34)cn2)CC1 [Example 14, (8S)-N-Methyl-N-({3-[6-(4-methyl-1-piperazinyl)-3-pyridinyl]imidazo[1,2-a]pyridin-2-yl}methyl)-5,6,7,8-tetrahydro-8-quinolinamine] | < 0.1 µM | – |
| CN1CCN(C(=O)c2c(CN(C)C3CCCc4cccnc43)nc3ccccn23)CC1 (stereo not shown) [Example 37, N-methyl-N-({3-[(4-methyl-1-piperazinyl)carbonyl]imidazo[1,2-a]pyridin-2-yl}methyl)-5,6,7,8-tetrahydro-8-quinolinamine] | 0.5 to 10 µM | – |
